PMC6006164, “Natural cyclopeptide RA-V inhibits the NF-κB signaling pathway by targeting TAK1” (Cell Death & Disease, 2018)
Where “and” joins values, the source holds several entries; their conditions need not be identical. Equal values may be shown once.

The molecules below were run on NF-κB signaling pathway (assay: NF-κB-dependent luciferase reporter (5×κB-luciferase/pTK-Renilla), TNF-α-induced, HEK293T cells). Settings: HEK293T screen, 24-well.
Format: cell-based
Experimental: HEK293T or HeLa cells were seeded in 24-well plates and transiently transfected with the 5 × κB-luciferase and pTK-Renilla reporters using Lipofectamine 2000 (Invitrogen) for 18 h. The cells were then incubated with different concentrations of the compounds for the indicated times and subsequently stimulated with 10 ng/mL TNF-α for 2 h. The luciferase activity in the cell lysates was analyzed using the Dual Luciferase Reporter Assay System (Promega). The luciferase reporter assays were performed as previously described.
Supplementary Figure 1. RA-V has the best inhibitory effect on NF-κB signaling pathway among RAs. (a-b) HEK293T cells were transfected with the 5×κB-luciferase and pTK-Renilla reporters. Twenty-four hours after transfection, the cells were incubated with various concentrations of the indicated compounds for 6 h and then treated with 10 ng/ml TNF-α for 2 h before the luciferase activity assays. The data are presented as the means ± S.D. from three independent experiments. […]
Scheme for CB12 synthesis. (c) CB12 inhibited NF-κB reporter activity in a dose-dependent manner. The HEK293T cells were transfected with the 5×κB-luciferase and pTK-Renilla reporters. Twenty-four h after transfection, the cells were treated with various concentrations of CB12 for 6 h and then treated with 10 ng/ml TNF-α for 2 h before the luciferase activity assays. (d) […]
Supplementary Table 3: Screening data of small molecules
Category Parameter Description
Assay Type of assay Cell-based
Target NF-κB signaling pathway
Primary measurement Detection of Firefly luciferase enzyme activities and Renilla Luciferase expression
Key reagents 5 × κB-lucieferase and luciferase assay (Progema)
Assay protocol HEK293T cells were seeded in 24 -well plates and transiently transfected with 20 ng of 5×κB-luciferase and 2 ng of pTK-Renilla reporters using Lipofectamine
2000 (Invitrogen) for 18 h. The cells were then incubated with small molecules (10 μM) for 6 hours, and subsequently stimulated with 10 ng/ml TNF -α for 2 h. Luciferase activity of the cell lysates was analysed by the Dual Luciferase Reported Assay System
(Promega). The Firefly luciferase enzyme activities were determined for NF -κB signaling activities and normalized to Renilla Luciferase expression.
Library Library size approximately 200
Library composition natural and synthetic chemical compounds, including cyclopeptides, quinones and terpenes.
Source State Key Laboratory of Phytochemistry and Plant
Resources in West China, Kunming Institute of Botany, Chinese Academy of Sciences
Screen Format 24-well, Corning
Concentration(s) tested 10 μM
Reagent/ compound dispensing system Manual
Detection instrument and software Synergy 2 (BioTek)
Assay validation/QC Velcade inhibits NF-κB signaling pathway
Normalization The Firefly luciferase enzyme activities were normalized by Renilla Luciferase expression
Post-HTS analysis Hit criteria κB-luc/ Renilla ratio < 0.5 standard deviations from the […]
Hit rate Approximately 15%
Confirmation of hit purity and structure Compounds were verified by HPLC and NMR

Molecule | NF-κB signaling pathway (plate control, assay validation)
CC(C)C[C@H](NC(=O)[C@H](Cc1ccccc1)NC(=O)c1cnccn1)B(O)O [Velcade, Bortezomib, reference compound] | inhibits

Same assay, conditions: HEK293T; compounds 6 h, then 10 ng/ml TNF-α 2 h; means of three independent experiments; read-out: IC50 (μM), NF-κB reporter activity

Molecule | IC50
C-6β-oxy-RA-IV | 2.06 µM
O-seco-RA-V | > 15 µM
RA-I | 1.31 µM
RA-III | 1.1 µM
RA-IV | 10.6 µM
RA-VII | 0.089 µM
RA-XI isoform 1 | > 15 µM
RA-XI isoform 2 | > 15 µM
RA-XII | 1.85 µM
RA-XIII | > 15 µM
RA-XIII-OMe | > 15 µM
RA-XXIV | 11.9 µM
RY-II | > 15 µM and 19 µM
Rubiaschumanin A | > 15 µM
Rubiaschumanin B | 3.88 µM
Rubiaschumanin C | > 15 µM
Rubicordifolin A | 3.41 µM
Rubicordifolin C | 6.87 µM
Rubiyunnanin A | > 15 µM
Rubiyunnanin B | > 15 µM and 15.1 µM
Rubiyunnanin C | > 15 µM
Rubiyunnanin D | > 15 µM
Rubiyunnanin E | > 15 µM
Rubiyunnanin F | > 15 µM
Rubiyunnanin G | > 15 µM
Rubiyunnanin H | > 15 µM
Rubiyunnanin I | > 15 µM

The molecules below were run against T1, TAK1 (Homo sapiens, UniProt O43318) (assay: Streptavidin agarose pull-down with biotin-tagged probe CB12). Settings: lysates of HEK293T transfected with TAK1; RA-V in 10-fold excess.
T1 construct: expressed in transfected cells; host or cells: HEK293T
T1 sequence (O43318 1-579 isoform O43318-2): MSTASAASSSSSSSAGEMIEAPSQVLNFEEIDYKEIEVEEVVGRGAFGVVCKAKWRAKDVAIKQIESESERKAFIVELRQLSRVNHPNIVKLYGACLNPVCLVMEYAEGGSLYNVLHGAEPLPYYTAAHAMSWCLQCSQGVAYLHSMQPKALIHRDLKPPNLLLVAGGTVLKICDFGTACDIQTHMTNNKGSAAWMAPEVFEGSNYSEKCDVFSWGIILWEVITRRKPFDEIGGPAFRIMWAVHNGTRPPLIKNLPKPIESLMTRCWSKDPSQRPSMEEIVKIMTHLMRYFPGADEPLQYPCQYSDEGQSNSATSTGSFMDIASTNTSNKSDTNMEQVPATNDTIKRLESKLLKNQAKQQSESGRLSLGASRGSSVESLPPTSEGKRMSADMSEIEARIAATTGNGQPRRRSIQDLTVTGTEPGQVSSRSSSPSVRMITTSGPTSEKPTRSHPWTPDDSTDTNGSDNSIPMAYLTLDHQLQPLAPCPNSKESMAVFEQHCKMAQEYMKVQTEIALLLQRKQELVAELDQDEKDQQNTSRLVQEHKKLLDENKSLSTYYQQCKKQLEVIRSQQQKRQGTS
Format: binding
Experimental: HEK293T cells were transfected with TAK1 for 24 h, then the cell lysates were incubated with biotin or CB12 followed by streptavidin agarose pull-down. […] HEK293T cells were transfected with the indicated plasmids for 24 h. The cell lysates were pulled down with streptavidin agarose and then immunoblotted with HA or Flag antibody. Each experiment was repeated at least three times
HEK293T cells were transfected with TAK1-N or TAK1-C for 24 h. The cells lysates were incubated with CB12 or biotin and precipitated with streptavidin-coated sepharose and were analyzed by immunoblotting with Flag antibody. b The model for RA-V binding to the crystal structure of the TAK1–TAB1 fusion protein (PDB 4GS6). […] HEK293T cells were transfected with TAK1 for 24 h, and then the cell lysates were incubated with biotin or CB12 before precipitation with streptavidin agarose. […] HeLa cells were incubated with various concentrations of RA-V for 12 h and then treated with 10 ng/mL TNF-α for 10 min. The cell lysates were prepared and western blotted with the indicated antibodies. Each experiment was repeated at least three times
HEK293T cells were harvested and lysed in RIPA buffer with protease inhibitors. […] The samples were separated by SDS-PAGE, and the bound proteins were detected using the indicated antibodies.

Molecule | competition with the CB12–TAK1 interaction (pull-down)
COc1cc(O)c2c(c1)/C=C/C[C@H](O)[C@H](O)C(=O)/C=C\C[C@H](C)OC2=O [(5Z)-7-Oxozeaenol, reference compound] | effectively competed
